Reference: patent publication US8536124B2, “Artificial decapeptide for inducing vitellogenesis in fish” (National Pingtung University of Science & Technology, priority 2010, dated 2013)

Tested on: Mugil cephalus
Experiment: Ovum maturation (vitellogenesis) of Mugil cephalus after implantation of sustained-release capsules
Format: in vivo
Settings: M. cephalus, implanted in May, diameter in October; preparation 400 μg, estradiol 1000 μg; FIG. 3
From the text: Additionally, a method for inducing vitellogenesis in fish can also be developed, by implanting the preparation of the present invention into body cavity or body wall of bony fish, for example in lateral muscle or abdomen cavity, in order to inducing the sexual maturation and vitellogenesis in the bony fish. With reference to FIG. 1, the preparation of the present invention is preferably implanted into lateral muscle adjacent to dorsal fin 21 of a bony fish 2 by an injector 1 in the present embodiment. Accordingly, the decapeptide in the preparation can be sustaining released into the bony fish for long-term inducing the hypophysis to synthesize and secrete gonadotropin (GtH) so that the vitellogenesis and breeding of the bony fish can be achieved.
Referring to FIG. 3, the responses of Mugil cephalus on decapeptide-induction are shown. In the present embodiment, several farming M. cephalus, are prepared and randomly assigned into five groups including (b1), (b2) ovaprin group, (b3) estradiol group, (b4) MixT group and (b5) control group. […] Moreover, ova of each group of M. cephalus are collected and analyzed monthly after implantation for monitoring the vitellogenesis in each group of M. cephalus. The ovum maturation of each group of M. cephalus is also determined in accordance with the size and accumulation of the ovum.

SMILES: C[C@]12CC[C@@H]3c4ccc(O)cc4CC[C@H]3[C@@H]1CC[C@@H]2O [estradiol]
- oocyte diameter: about 380 μm
